From ChEMBL document CHEMBL1147893, “Carbonic anhydrase inhibitors: the X-ray crystal structure of the adduct of N-hydroxysulfamide with isozyme II explains why this new zinc binding function is effective in the design of potent inhibitors” (Bioorg Med Chem Lett, 2007) come the findings set out here.

A value given as a limit tells only on which side of the number the result lay.

Experiment [1] addresses Carbonic anhydrase 1 (Homo sapiens) (UniProt P00915).
Description: Inhibition of human recombinant carbonic anhydrase 1
The target in experiment [2] is Carbonic anhydrase 2 (Homo sapiens) (UniProt P00918).
Description: Inhibition of human recombinant carbonic anhydrase 2
Experiment [3] has as its target Carbonic anhydrase 9 (Homo sapiens) (UniProt Q16790).
Description: Inhibition of human recombinant carbonic anhydrase 9 catalytic domain by CO2 hydrase method
Experiment [4] deals with Carbonic anhydrase 12 (Homo sapiens) (UniProt O43570).
Carbonic anhydrase 12 (Homo sapiens), sequence (O43570 whole entry): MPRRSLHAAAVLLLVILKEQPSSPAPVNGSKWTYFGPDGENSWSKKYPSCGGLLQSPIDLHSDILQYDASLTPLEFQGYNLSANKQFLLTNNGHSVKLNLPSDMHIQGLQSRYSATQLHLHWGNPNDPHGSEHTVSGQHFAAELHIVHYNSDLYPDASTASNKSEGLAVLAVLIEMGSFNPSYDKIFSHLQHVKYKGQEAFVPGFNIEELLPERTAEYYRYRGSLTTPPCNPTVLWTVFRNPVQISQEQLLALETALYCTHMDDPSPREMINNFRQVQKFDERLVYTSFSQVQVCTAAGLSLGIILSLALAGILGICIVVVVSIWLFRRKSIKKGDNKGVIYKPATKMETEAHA
Description: Inhibition of human recombinant carbonic anhydrase 12 catalytic domain by CO2 hydrase method

Carbonic anhydrase 1 (Homo sapiens), sequence (P00915 2-261 limits assumed): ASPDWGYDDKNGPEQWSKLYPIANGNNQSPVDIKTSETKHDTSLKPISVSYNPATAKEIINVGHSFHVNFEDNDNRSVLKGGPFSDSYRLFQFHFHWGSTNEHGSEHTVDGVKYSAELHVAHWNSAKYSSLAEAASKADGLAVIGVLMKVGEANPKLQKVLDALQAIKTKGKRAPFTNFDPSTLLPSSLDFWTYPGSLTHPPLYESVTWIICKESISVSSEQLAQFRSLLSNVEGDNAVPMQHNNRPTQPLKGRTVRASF

Consider `NS(=O)(=O)O`, for which the Kinact is 0.21 10^5nM in experiment [1], 0.39 10^6nM in experiment [2], 9.2 10^3nM in experiment [3] and 10.7 10^3nM in experiment [4].

With `O=S(=O)([O-])[O-].[Na+].[Na+]`, the Kinact in experiment [1] was 6.3 10^6nM; in experiment [2] it was > 300 10^6nM; in experiment [3], > 300 10^6nM; in experiment [4], 7.7 10^5nM.
